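Five compound concentrations were applied to cells in 96-well plates for 48 hours; endpoints were derived by simple linear interpolation of the resulting dose-response curve. GI50 is the concentration that inhibits growth by half. Definition used: TGI = concentration required for complete inhibition of growth.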
Columns and labels:
Test in all cases: NCI-60 cell line screen, 48 h
[1] = test system: HL-60(TB) leukemia
[2] = test system: ACHN renal
[3] = test system: COLO 205 colon
[4] = test system: IGROV1 ovarian
[5] = test system: MOLT-4 leukemia
[6] = test system: CAKI-1 renal
[7] = test system: DU-145 prostate
[8] = test system: UACC-62 melanoma
[9] = test system: HCT-116 colon
[10] = test system: NCI-H460 lung
[11] = test system: EKVX NSCLC
[12] = test system: SN12C renal
[13] = test system: BT-549 breast
[14] = test system: SNB-75 CNS
[15] = test system: OVCAR-8 ovarian
[16] = test system: HOP-62 NSCLC
[17] = test system: LOX IMVI melanoma
[18] = test system: SK-MEL-2 melanoma
[19] = test system: UO-31 renal
[20] = test system: PC-3 prostate
[21] = test system: MALME-3M melanoma
[22] = test system: UACC-257 melanoma
[23] = test system: TK-10 renal
[24] = test system: OVCAR-5 ovarian
[25] = test system: MCF7 breast
[26] = test system: NCI-H522 lung
[27] = test system: M14 melanoma
[28] = test system: K-562 leukemia
[29] = test system: NCI-H23 lung
[30] = test system: RPMI-8226 leukemia
[31] = test system: A549 NSCLC
[32] = test system: T-47D breast
[33] = test system: A498 renal
[34] = test system: SNB-19 CNS
[35] = test system: RXF 393 renal
[36] = test system: SW-620 colon
[37] = test system: HT29 colon
[38] = test system: OVCAR-3 ovarian
[39] = test system: HCC-2998 colon
[40] = test system: KM12 colon
[41] = test system: 786-0 renal
[42] = test system: SK-MEL-28 melanoma
[43] = test system: MDA-MB-231 breast
[44] = test system: HS 578T breast
[45] = test system: MDA-MB-435
[46] = test system: SR leukemia
[47] = test system: HCT-15 colon
[48] = test system: HOP-92 NSCLC
[49] = test system: NCI-H226 lung
[50] = test system: SF-539 CNS
[51] = test system: OVCAR-4 ovarian
[52] = test system: SK-OV-3 ovarian
[53] = test system: SF-268 CNS
[54] = test system: NCI/ADR-RES ovarian
[55] = test system: SK-MEL-5 melanoma
[56] = test system: U251 CNS
[57] = test system: CCRF-CEM leukemia
[58] = test system: SF-295 CNS

SMILES: Cc1cc(I)cc(CN(C)CCCN2CCSCC2)c1O
- GI50 [1]: 18.8 µM
- TGI [1]: 36.6 µM
- GI50 [2]: 41 µM
- TGI [2]: > 100 µM
- GI50 [3]: 25.2 µM
- TGI [3]: 55.3 µM
- GI50 [4]: 33.3 µM
- TGI [4]: > 100 µM
- GI50 [5]: 19.4 µM
- TGI [5]: 41.6 µM
- GI50 [6]: 20 µM
- TGI [6]: 40.7 µM
- GI50 [7]: 41 µM
- TGI [7]: > 100 µM
- GI50 [8]: 32 µM
- TGI [8]: > 100 µM
- GI50 [9]: 13.3 µM
- TGI [9]: 30.8 µM
- GI50 [10]: 17.8 µM
- TGI [10]: 40.2 µM
- GI50 [11]: 29.4 µM
- TGI [11]: > 100 µM
- GI50 [12]: 76.6 µM
- TGI [12]: > 100 µM
- GI50 [13]: 14.8 µM
- TGI [13]: 32.6 µM
- GI50 [14]: 30.6 µM
- TGI [14]: > 100 µM
- GI50 [15]: 34.8 µM
- TGI [15]: > 100 µM
- GI50 [16]: 18.4 µM
- TGI [16]: 41.9 µM
- GI50 [17]: 17.2 µM
- TGI [17]: 33.5 µM
- GI50 [18]: 19.2 µM
- TGI [18]: 39.9 µM
- GI50 [19]: 26.4 µM
- TGI [19]: > 100 µM
- GI50 [20]: 29.8 µM
- TGI [20]: > 100 µM
- GI50 [21]: 23.2 µM
- TGI [21]: 44.6 µM
- GI50 [22]: 26.4 µM
- TGI [22]: 92.1 µM
- GI50 [23]: 33.3 µM
- TGI [23]: 89.3 µM
- GI50 [24]: 29.1 µM
- TGI [24]: 92.4 µM
- GI50 [25]: 18.5 µM
- TGI [25]: 40.5 µM
- GI50 [26]: 23.6 µM
- TGI [26]: 55.9 µM
- GI50 [27]: 17.3 µM
- TGI [27]: 33.2 µM
- GI50 [28]: 14.2 µM
- TGI [28]: 32.6 µM
- GI50 [29]: 23.5 µM
- TGI [29]: 65.1 µM
- GI50 [30]: 18.8 µM
- TGI [30]: 44.4 µM
- GI50 [31]: 30.7 µM
- TGI [31]: > 100 µM
- GI50 [32]: 31.3 µM
- TGI [32]: > 100 µM
- GI50 [33]: 26.4 µM
- TGI [33]: 51.3 µM
- GI50 [34]: 25.6 µM
- TGI [34]: 55.6 µM
- GI50 [35]: 17.2 µM
- TGI [35]: 39 µM
- GI50 [36]: 19.4 µM
- TGI [36]: 38.9 µM
- GI50 [37]: 18.8 µM
- TGI [37]: 43.1 µM
- GI50 [38]: 29.7 µM
- TGI [38]: > 100 µM
- GI50 [39]: 17.5 µM
- TGI [39]: 32.5 µM
- GI50 [40]: 37.2 µM
- TGI [40]: > 100 µM
- GI50 [41]: 21.2 µM
- TGI [41]: 53.3 µM
- GI50 [42]: 27.9 µM
- TGI [42]: 87.6 µM
- GI50 [43]: 27.8 µM
- TGI [43]: 92.3 µM
- GI50 [44]: 19.1 µM
- TGI [44]: 48.3 µM
- GI50 [45]: 23.2 µM
- TGI [45]: 57.5 µM
- GI50 [46]: 10.6 µM
- TGI [46]: 25.3 µM
- GI50 [47]: 17.8 µM
- TGI [47]: 37.2 µM
- GI50 [48]: 14.6 µM
- TGI [48]: 47.4 µM
- GI50 [49]: 39.5 µM
- TGI [49]: > 100 µM
- GI50 [50]: 23.4 µM
- TGI [50]: 62.7 µM
- GI50 [51]: 44.7 µM
- TGI [51]: > 100 µM
- GI50 [52]: 35.4 µM
- TGI [52]: > 100 µM
- GI50 [53]: 28.4 µM
- TGI [53]: > 100 µM
- GI50 [54]: 24.8 µM
- TGI [54]: 76.5 µM
- GI50 [55]: 16.4 µM
- TGI [55]: 31 µM
- GI50 [56]: 33.9 µM
- TGI [56]: 95.6 µM

SMILES: CCOC(=O)C(Cc1c[nH]c2ccc(N)cc12)(NC(C)=O)C(=O)OCC
- GI50 [1]: 758 µM
- TGI [1]: > 1000 µM
- GI50 [2]: > 1000 µM
- TGI [2]: > 1000 µM
- GI50 [3]: 849 µM
- TGI [3]: > 1000 µM
- GI50 [4]: > 1000 µM
- TGI [4]: > 1000 µM
- GI50 [7]: > 1000 µM
- TGI [7]: > 1000 µM
- GI50 [8]: > 1000 µM
- TGI [8]: > 1000 µM
- GI50 [9]: > 1000 µM
- TGI [9]: > 1000 µM
- GI50 [10]: > 1000 µM
- TGI [10]: > 1000 µM
- GI50 [11]: > 1000 µM
- TGI [11]: > 1000 µM
- GI50 [12]: > 1000 µM
- TGI [12]: > 1000 µM
- GI50 [13]: 588 µM
- TGI [13]: > 1000 µM
- GI50 [14]: > 1000 µM
- TGI [14]: > 1000 µM
- GI50 [15]: > 1000 µM
- TGI [15]: > 1000 µM
- GI50 [16]: > 1000 µM
- TGI [16]: > 1000 µM
- GI50 [17]: > 1000 µM
- TGI [17]: > 1000 µM
- GI50 [57]: 656 µM
- TGI [57]: > 1000 µM
- GI50 [19]: > 1000 µM
- TGI [19]: > 1000 µM
- GI50 [20]: > 1000 µM
- TGI [20]: > 1000 µM
- GI50 [21]: > 1000 µM
- TGI [21]: > 1000 µM
- GI50 [22]: > 1000 µM
- TGI [22]: > 1000 µM
- GI50 [23]: > 1000 µM
- TGI [23]: > 1000 µM
- GI50 [24]: > 1000 µM
- TGI [24]: > 1000 µM
- GI50 [25]: > 1000 µM
- TGI [25]: > 1000 µM
- GI50 [26]: > 1000 µM
- TGI [26]: > 1000 µM
- TGI [27]: > 1000 µM
- GI50 [28]: > 1000 µM
- TGI [28]: > 1000 µM
- GI50 [29]: > 1000 µM
- TGI [29]: > 1000 µM
- GI50 [31]: > 1000 µM
- TGI [31]: > 1000 µM
- GI50 [32]: 728 µM
- TGI [32]: > 1000 µM
- GI50 [34]: > 1000 µM
- TGI [34]: > 1000 µM
- GI50 [35]: > 1000 µM
- TGI [35]: > 1000 µM
- GI50 [36]: > 1000 µM
- TGI [36]: > 1000 µM
- GI50 [37]: > 1000 µM
- TGI [37]: > 1000 µM
- GI50 [38]: > 1000 µM
- TGI [38]: > 1000 µM
- GI50 [58]: > 1000 µM
- TGI [58]: > 1000 µM
- GI50 [39]: > 1000 µM
- TGI [39]: > 1000 µM
- GI50 [40]: > 1000 µM
- TGI [40]: > 1000 µM
- GI50 [41]: > 1000 µM
- TGI [41]: > 1000 µM
- GI50 [42]: > 1000 µM
- TGI [42]: > 1000 µM
- GI50 [43]: > 1000 µM
- TGI [43]: > 1000 µM
- GI50 [44]: > 1000 µM
- TGI [44]: > 1000 µM
- GI50 [45]: > 1000 µM
- TGI [45]: > 1000 µM
- GI50 [47]: > 1000 µM
- TGI [47]: > 1000 µM
- GI50 [48]: > 1000 µM
- TGI [48]: > 1000 µM
- GI50 [49]: > 1000 µM
- TGI [49]: > 1000 µM
- GI50 [50]: > 1000 µM
- TGI [50]: > 1000 µM
- GI50 [51]: > 1000 µM
- TGI [51]: > 1000 µM
- GI50 [52]: > 1000 µM
- TGI [52]: > 1000 µM
- GI50 [53]: > 1000 µM
- TGI [53]: > 1000 µM
- GI50 [54]: > 1000 µM
- TGI [54]: > 1000 µM
- GI50 [55]: > 1000 µM
- TGI [55]: > 1000 µM
- GI50 [56]: > 1000 µM
- TGI [56]: > 1000 µM

Reference: PubChem BioAssay (NCI)
